pIC50: −log10 of the molar value.
Legend:
Glioblastoma cell line [1] = experiment: Cytotoxicity against human glioblastoma cell P5 cells assessed as reduction in cell viability upto 30 uM by MTT assay; assay type: functional, cell-based; details: dose microM <=30, time hrs <=72, TDE = time-dependent effect
Glioblastoma cell line [2] = experiment: Cytotoxicity against human glioblastoma cell P3 cells assessed as reduction in cell viability upto 30 uM by MTT assay; assay type: functional, cell-based; details: dose microM <=30, time hrs <=72, TDE = time-dependent effect
Glioblastoma cell line [3] = experiment: Cytotoxicity against TMZ-resistant human glioblastoma cell P3 cells assessed as reduction in cell viability upto 72 hrs by MTT assay; assay type: functional, cell-based; details: dose microM <=30, time hrs <=72
[4] = target: T1, Protein deacetylase HDAC6 (Homo sapiens, UniProt Q9UBN7); experiment: Inhibition of human recombinant HDAC6 expressed in baculovirus infected insect cells using [RHKK(Ac)] fluorogenic substrate
T1 sequence (Q9UBN7 whole entry): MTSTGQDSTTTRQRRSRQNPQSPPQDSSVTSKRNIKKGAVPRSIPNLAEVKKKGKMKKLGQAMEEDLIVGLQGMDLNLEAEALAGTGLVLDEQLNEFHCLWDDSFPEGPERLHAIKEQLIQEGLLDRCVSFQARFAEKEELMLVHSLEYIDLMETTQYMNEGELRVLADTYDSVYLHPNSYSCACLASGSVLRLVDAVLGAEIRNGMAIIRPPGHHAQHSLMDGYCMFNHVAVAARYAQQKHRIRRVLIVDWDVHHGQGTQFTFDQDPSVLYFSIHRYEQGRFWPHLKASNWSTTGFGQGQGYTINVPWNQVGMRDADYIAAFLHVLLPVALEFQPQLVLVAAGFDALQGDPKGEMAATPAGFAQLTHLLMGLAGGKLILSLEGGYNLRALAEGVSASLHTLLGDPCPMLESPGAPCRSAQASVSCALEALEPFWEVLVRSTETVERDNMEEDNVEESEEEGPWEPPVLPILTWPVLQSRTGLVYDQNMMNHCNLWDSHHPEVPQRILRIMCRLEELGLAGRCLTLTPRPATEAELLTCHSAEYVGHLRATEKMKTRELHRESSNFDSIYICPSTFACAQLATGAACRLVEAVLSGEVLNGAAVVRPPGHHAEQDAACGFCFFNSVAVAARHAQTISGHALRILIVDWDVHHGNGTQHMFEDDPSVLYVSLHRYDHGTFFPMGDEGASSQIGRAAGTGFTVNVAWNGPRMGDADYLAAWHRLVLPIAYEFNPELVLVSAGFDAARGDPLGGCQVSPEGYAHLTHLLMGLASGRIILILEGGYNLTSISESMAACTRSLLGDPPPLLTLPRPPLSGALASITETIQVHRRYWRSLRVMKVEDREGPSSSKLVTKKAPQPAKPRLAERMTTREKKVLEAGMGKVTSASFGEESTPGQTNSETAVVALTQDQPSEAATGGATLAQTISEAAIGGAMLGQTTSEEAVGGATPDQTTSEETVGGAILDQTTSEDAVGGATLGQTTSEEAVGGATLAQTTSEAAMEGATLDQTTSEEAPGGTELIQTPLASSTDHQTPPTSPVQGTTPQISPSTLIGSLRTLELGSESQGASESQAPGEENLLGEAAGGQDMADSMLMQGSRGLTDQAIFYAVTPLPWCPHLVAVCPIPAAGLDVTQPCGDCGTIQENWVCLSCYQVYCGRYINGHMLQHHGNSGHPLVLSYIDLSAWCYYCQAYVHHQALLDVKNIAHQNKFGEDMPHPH

- pIC50 [4]: 8.27
Structure (SMILES): CC12CC3CC(C)(C1)CC(NCc1ccc(NC(=O)CCCCCCC(=O)NO)cc1)(C3)C2
- Activity (Glioblastoma cell line [1]): Tde
- Activity (Glioblastoma cell line [2]): Tde
- Activity (Glioblastoma cell line [3]): Dose-Dependent Effect
